Values joined by “and” are separate entries in the source; they are usually repeats but may differ in a detail not shown here. Identical values can stand only once.
Legend:
myometrium = settings: relative to oxytocin; cited from earlier work
uterine horn = assay: In situ uterine horn contractions in estrogenized anesthetized female rats; format: in vivo, rat; settings: for A = amplitude of contractions as a % of maximal contraction induced by a tetanic dose of 10 mcg/kg oxytocin: equipotent i.v. doses (10 mcg/kg dCOMOT, Me-OT; 1 mcg/kg dOT, OT), n=5; for A = amplitude of contractions as a % of maximal contraction induced by a tetanic dose of 10 mcg/kg oxytocin / C = duration of the response: mean, SEM on next line; for D = the presence of tetany in % of the animal group (single maximal contraction lasting more than 10 min.) / B = contraction frequency per 10 min. in % / C = duration of the response: equipotent i.v. doses (10 or 1 mcg/kg); for B = contraction frequency per 10 min. in %: mean ± SEM
Description: 250-300 g body wt female rats (n=5 for each substance) were pre-treated for 3 days with 50 mcg di-ethylstilbestrol and 25 mg progesterone injected once daily i.m. in order to fully "estrogenize" the animals and have them all in the same functional state of myometrial reactivity. They were then anesthetized with urethane and prepared for in situ measurements of uterine horn contractions using Grass force-displacement treansducers and polygraph recording.

healthy lactating sows = assay: Milk-let-down effect in healthy lactating sows; format: in vivo, sow
Description: The milk-let-down effect of 1-desamino-1-monocarba-([…](OMe))-oxytocin (hereinafter noted as dCOMOT) was tested in healthy lactating sows. The milk-let-down effect of 0.6 mg of dCOMOT injected intravenously lasted for from 4 to 9 hours.

[1] = test system: sows affected with hypogalactia or agalactia; format: in vivo, sow; settings: for Litter size (Mean ± s.d.) 7 days after treatment / Litter size (Mean ± s.d.) at day of treatment: dCOMOT 0.6 mg i.v. or i.m., oxytocin 30-50 I.U.; for sows failing to eject milk on the day after treatment: day after 1st treatment; for Mean piglet weight per litter at day of treatment / Litter size (Mean ± s.d.) at day of treatment: day of treatment (baseline); for side effects after treatment: in vivo
[2] = sow, as in all other mammals; cited from earlier work
uterus of gilts = format: in vivo, gilt; settings: i.v., OT 1 to 5 IU, dCOMOT 0.2 to 1.0 mg
Description: Four gilts were used. The experiments stated about 24 hours after onset of their second or third estrus. Their cycle duration was in the range 19-22 days. They were anesthetized by i.v. administration of about 15 mg/kg Na thionembutal (in 5% (w/v) solution)--additional doses were required during the experiment. The uterus was exposed through a midline abdominal incision. A recording balloon-tipped catheter was inserted into each uterine horn through a small incision about 10 cm from the uterine body (Clay-Adams catheters, PE 90-0.86 mm i.d.×1.27 mm o.d., with a micro-balloon sealed over the tip with a double tie of 0000 silk suture). The recording system was filled with saline and each catheter was affixed to the uterine wall with 000 silk suture to prevent motion of the balloon in the lumen. The catheters exited through the mid-abdominal incision and were connected to P-23AC pressure transducers, thence to 7PL DC preamplifiers. When we were satisfied that the recording system was functioning the abdominal incision was closed about the catheters. […] Unfortunately there was not enough material for a full scale dose-response investigation.

antidiuretic in the rat = assay: Biological activity F: antidiuretic in the rat; settings: in vivo
From the text: | F = antidiuretic in the rat.

isolated rat uterus = assay: Biological activity A: isolated rat uterus; format: cell-based
From the text: | A = isolated rat uterus,

[3] = Partition coefficient between 2-butanol and 0.05% acetic acid; format: physicochemical; settings: 2-butanol / 0.05% acetic acid
From the text: K = partition coefficient between 2butanol and 0.05% acetic

pregnant cows = assay: Induction of labor in pregnant Czech red-spotted cows; format: in vivo, cow; settings: for Duration of Labor: individual animals
Description: These experiments were carried out on 13 pregnant `Czech red-spotted` cows ranging from para I to para V. Average pregnancy in this breed is 290 days in duration.
Nine of the animals were 278-290 days after insemination but actual active labor had not yet begun. These animals received no other medication (Table 7).
Four of the animals were estimated to be near to term (cf. Table 4). 48 hours before the actual experiment they received 20 mg dexamethasone i.m. in an attempt to prepare the uterine cervix for active labor. In this group, in addition to close clinical follow-up, measurements were also made of: body temp., hemoglobin (Hb), glucose, total protein, inorganic P, Ca and Mg concentrations in the blood, both in the cow during the experiment and in the calf after birth, all by standard methods.
The standard i.v. (jugular) injection dosage of dCOMOT was 5 mg. In those cases in which labor lasted longer than 6 hours (cf. Results) in second injection was given.
The first group of 9 cows was managed under field conditions--in the barns of local farms. The four animals under more intensive study were kept in stalls set aside in a research building for one week prior to the onset of the experiment and for 3 weeks following delivery for further postnatal observations.

lactational activity = assay: Biological activity E: lactational activity in vivo
From the text: | E = lactational activity in vivo

in situ rat uterus = assay: Biological activity B: in situ rat uterus; settings: in vivo
From the text: | B = in situ rat uterus,

[4] = test system: isolated rat mammary gland; assay: Biological activity D: isolated rat mammary gland; format: cell-based
From the text: | D = isolated rat mammary gland,

| D = the presence of tetany in % of the animal group (single maximal contraction lasting more than 10 min.) (uterine horn) | Compound | A = amplitude of contractions as a % of maximal contraction induced by a tetanic dose of 10 mcg/kg oxytocin (uterine horn) | B = contraction frequency per 10 min. in % (uterine horn) | C = duration of the response (uterine horn) | Mean piglet weight per litter 7 days after treatment [1] | Litter size (Mean ± s.d.) 7 days after treatment [1] | sows failing to eject milk on the day after treatment [1] | Mean piglet weight per litter at day of treatment [1] | Litter size (Mean ± s.d.) at day of treatment [1] | side effects after treatment [1] | further results |
| --- | --- | --- | --- | --- | --- | --- | --- | --- | --- | --- | --- |
| none | [2-Tyr(OMe)]-OT [Me--OT] | 68% | 42 ± 5.4% | 20.6 min |  |  |  |  |  |  | contractile activity on the myometrium in comparison with the natural hormone (myometrium): one tenth; vasoconstrictor activity in the myometrium in comparison with the natural hormone (myometrium): one hundredth |
| 60% | CC[C@H](C)[C@@H]1NC(=O)[C@H](Cc2ccc(O)cc2)NC(=O)[C@@H](N)CSSC[C@@H](C(=O)N2CCC[C@H]2C(=O)N[C@@H](CC(C)C)C(=O)NCC(N)=O)NC(=O)[C@H](CC(N)=O)NC(=O)[C@H](CCC(N)=O)NC1=O [oxytocin, reference compound] | 90% | 43 ± 3.2% | 10.4 min | 2.28 ± 0.44 kg | 9.10 ± 2.10 | Four out of 17 | 1.40 ± 0.22 kg | 10.00 ± 1.95 | No side effects were observed | duration of rapid increase of the intramammary pressure (healthy lactating sows; 5-10 I.U. intravenous, healthy lactating sows): 5 to 10 min; biochemical half-life of injected hormone [2]: only a few minutes; contraction rate after injection (baseline 6/10 min) (uterus of gilts): 8/10; response duration (uterus of gilts; anesthetized gilts): approximately 10 min |
| none | 1-desamino-1-monocarba-(2-Tyr(OMe))-oxytocin [Ic] | 65% | 60 ± 5.3% | 185 min | 2.64 ± 0.62 kg | 8.92 ± 1.85 | None | 1.44 ± 0.37 kg | 10.16 ± 1.65 | No side effects were observed | Biological activities F = antidiuretic in the rat (antidiuretic in the rat): 0.9 IU/mg; duration of secondary oscillation in intramammary pressure (healthy lactating sows; 0.6 mg intravenously, healthy lactating sows): at least 4 hours; milk-let-down response after intramuscular injection (healthy lactating sows; intramuscular injection, compared with i.v.): approximately the same response; Biological activities A = isolated rat uterus (isolated rat uterus): 10 IU/mg; K = partition coefficient [3]: 3.15; health of calves (pregnant cows; Group I): All the calves were healthy; Mean duration of labor from the dCOMOT injection (pregnant cows; Group I, 9 non-pretreated cows, mean ± SEM): 14.25 ± 5.1 h; uterine tetany during induced labor (pregnant cows; Group I, non-pretreated cows): no evidence of uterine tetany whatsoever; response following injection (pregnant cows; Group I, non-pretreated cows, all cases): onset of regular uterinne contractions and increased tension in the udder; Duration of Labor (pregnant cows; Group I, non-pretreated cows, dCOMOT i.v.): 26 h and 34 h and 22.5 h and 6 h and 24.5 h and 10 h and 1.5 h and 7 h and 15 h; health of calves (pregnant cows; Group II): all calves were healthy; mean duration of labor (pregnant cows; Group II, 4 dexamethasone pretreated cows): 4.3 ± 2.1 h; Duration of Labor (pregnant cows; Group II, cows pretreated with 20 mg dexamethasone i.m. 48 hours before, listed as dCOMOT): 0.7 h and 8.2 h and 8.8 h and 8.6 h; uterine tetany during induced labor (pregnant cows; Group II, dexamethasone pretreated cows): In no cases was uterine tetany observed; start of active labor after injection (pregnant cows; Group II, dexamethasone pretreated cows, all cases): within minutes; Progeny Serum (pregnant cows; Group II, dexamethasone pretreated cows, individual calves): 7.4; Biological activities E = lactational activity in vivo (lactational activity): 35 IU/mg; piglet weight gain during the observation period versus oxytocin group ([1]; 7 day observation period): gained more weight; Biological activities B = in situ rat uterus (in situ rat uterus): 40 IU/mg; Biological activities D = isolated rat mammary gland [4]: 67 IU/mg |
| 60% | 1-deamino-OT [d OT] | 92% | 65 ± 6.2% | 46 min |  |  |  |  |  |  |  |

Source: patent US4349544A, “Method for increasing the milk let down in mammals” (Ceskoslovenska akademie ved, priority 1976, dated 1982)
